Test results taken from US20240109855A1, “ANTI-QUORUM SENSING, ANTI-BIOFILM, AND INFLAMMATION ATTENUATING COMPOUNDS, COMPOSITIONS, AND METHODS OF USING SAME” (priority 2021, published 2024).
Entries after “also recorded” stand apart in the source; their conditions may differ.

Tests used:
[1] = system: quorum sensing (CV026 and KYC55); test: Quorum sensing inhibition, overall statement over the bio-reporter bacteria; format: cell-based
Protocol: TLC preparation: all derivatives were dissolved in 100% acetonitrile to a concentration of 40 mM. Then placed 20 μlon the same spot on the TLC and let the solvent evaporate before use. CV026: few colonies were transferred to liquid LB (Lenox) for overnight incubation at 30° C. in a 45 degree in orbital shaker. At the O.D. 0.8 3 ml of the starter was added to preheated soft LB agar containing 500 nM of 3-oxo-C6 (Sigma-Aldrich). The mixture was then loaded on the TLC in a glass plate for O.N. incubation in 30° C. The next day inhibition zone was measured, while QS is taking place bacteria produce purple pigment, and when QS is inhibited no pigment is produced. KYC55 (pJZ372) (pJZ384) (pJZ410): 20 μl from the frozen stock into 25 ml AT media (AT buffer×20: 1.57 M KH2PO4 pH=7.3. AT salts mix×20: 300 mM (NH4)2SO4, 13 mM MgSO4, 1.4 mM CaCl2, 0.4 mM FeSO4·7H2O, 0.26 mM MnSO4·H2O. AT media: 50 ml×20 AT-buffer, 50 ml×20 AT-salts, 10 ml 50% (w/v) glucose, add 890 ml to final volume of 1 liter.) For O.N. at 30° C. in an orbital shaker. Into preheated water agar with 25 ml AT-buffer, and 60 μg/ml X-gal and 5 nM 3-oxo-c8 (both from Sigma-Aldrich) 25 ml of the starter was added. Then, that mixture was loaded on the TLC in glass plate for O.N. incubation in 30° C. The next day the inhibition zone was measured. The bacteria produce blue pigment during QS and when QS is inhibited no pigment is produced. KYC55 (pJZ372) (pJZ384) (pJZ410) preservation in tetracycline (1 μg/ml), spectinomycin (100 μg/ml), gentamicin (100 μg/ml) (all antibiotics from Sigma Aldrich) in AT media O.N. then centrifuged and suspend in 15% glycerol frozen and maintained at −80° C.
All the synthesized compounds were evaluated for quorum sensing inhibition against two bioreporter bacteria strains, Chromobacterium violaceum (CV026) and Agrobacterium tumefaciens (KYC55) and the results are summarized in Table 1.

Bacillus subtilis = test: Diffusion discs test, Bacillus subtilis; format: cell-based; conditions: discs with 40 mM of compound in 20 μl solvent
Protocol: (§1) All derivatives were dissolved in acetonitrile to a final concentration of 40 mM. Twenty (20) μl were loaded onto Whatman filter paper discs and dried. Bacillus subtilis, Staphylococcus aureus, and Acinetobacter baumannii were grown in LB (Lenox) O.N. One hundred (100) μl from the starter culture was plated on LB agar (Miller) dishes. Streptococcus sobrinus, and Streptococcus mutans grown in Brain Heary Infusion (BHI, Himedia) O.N. were similarly plated on BHI agar dishes. Discs were laid and incubated O.N. in 37° C. and the diameter of inhibition of bacterial growth was measured.

[2] = system: gram-positive and gram-negative bacteria; test: Antibacterial activity, overall statement (diffusion discs test); format: cell-based
Protocol: as §1
The antibacterial activities of derivatives showing QSI are outlined in Table 4. […] Similar to that idea, synthetic derivatives of furanon (product of marine algae) shown in-vivo QSI activity without antibacterial activity followed by immune response of the infected animal. Phenolic compounds decrease QS and virulence in PA01 and Chromobacterium violaceum. There is increasing number of studies, searching for compounds that targeting non-vital processes to combat bacteria.

in vitro = conditions: human, LC50
Protocol: (§2) The human Hodgkin's Lymphoma derived L428 cell line was used as a model. The cells were grown in RPMI Medium 1640 with 10% FBS, 1% Glutamine and pen-strep (all from Biological Industries, Israel). […] Thirty thousand (30,000) cells/well were placed in 96-well plates with the coumaperine derivatives at different concentrations or with vehicle (DMSO) at a final volume of 200 μl. The plates were incubated for 48 hrs. at 37° C. and 5% CO2 followed by the addition of 50 μl of the XTT reagent tetrazolium-formazan, (Biological Industries, Israel) was added for 2 hrs. at 37° C., 5% CO2. In living cells, mitochondria […] the tetrazolium-formazan salt, thereby generating a color absorbing product at 450 nm. Absorbance was measured at 450 nm and 650 nm in an enzyme-linked immunosorbent assay (ELISA) plate reader (Multiskan Spectrum, Version 1.2), and recorded. Absorption values at 650 nm were subtracted from the blank and the 450 nm values. The results were normalized to the control (treated with DMSO).
(§3) Viability was determined in triplicate in two independent tests. The results were normalized to vehicle (DMSO) treated cells, (100% viability). Mean+SD.

L428 cells [3] = test: in vitro
Protocol: as §2, §3

Streptococcus mutans = test: Diffusion discs test, Streptococcus mutans; format: cell-based; set-up: key: —: no activity; conditions: discs with 40 mM of compound in 20 μl solvent
Protocol: as §1

Staphylococcus aureus = test: Diffusion discs test, Staphylococcus aureus; format: cell-based; conditions: discs with 40 mM of compound in 20 μl solvent
Protocol: as §1

[4] = system: Agrobacterium tumefaciens (KYC55); test: Quorum sensing inhibition test with bio-reporter KYC55 (TLC overlay); format: cell-based; on Degree of QSI of KYC55: key: −: no inhibition; +: low inhibition; ++: medium inhibition; +++: strong inhibition
Summary of the method: (§4)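 Compounds (40 mM in acetonitrile, 20 μl) were spotted on TLC and overlaid with soft agar reporter cultures, incubated overnight at 30 °C. CV026 was in LB with 500 nM 3-oxo-C6 (purple pigment), and KYC55 was in AT medium with 5 nM 3-oxo-C8 and 60 μg/ml X-gal (blue). Inhibition zone diameter was measured.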

PA01 = test: Diffusion discs test, PA01; format: cell-based, P. aeruginosa; set-up: key: —: no activity; conditions: discs with 40 mM of compound in 20 μl solvent
NF-kB = test: NF-kB-luciferase reporter gene assay in L428 cells; format: cell-based, human; conditions: Table 6 summary; further: key: +: active; −: inactive
Protocol: FIG. 7 includes a vertical bar graph showing a dose response of NF-kB activation according to an NF-kB reporter gene luciferase assay. L428 cells were stably transfected with the NF-kB luciferase reporter gene. The cells were incubated with the compounds at different concentrations for 2 hours. […] The results represent the percentage of NF-kB activation as compared to vehicle (DMSO) treated cells. All samples were normalized to protein concentration. Mean+SD, Two-way ANOVA and Tukey's multiple comparison test. 95% confidence interval (p-values *≤0.0332, **≤0.0021, ***≤0.0002).
L428 cells stable transfectants with the luciferase NF-kB-Luc reporter gene were generated previously described (Ozer et al., 2009), and were maintained in 500 μg/ml of G418 (G418 disulfate salt, Sigma-Aldrich). The cells (5×10^5 /well in triplicate) were incubated for 2 hrs. in 1 ml of medium containing the solvent (DMSO) or different concentrations of the molecules tested. Cells were then harvested, lysed, and monitored by a luciferase reporter assay kit (Promega) according to the manufacturer's instructions. Measurements were carried out using a luminometer (Promega, GLOMAX™ 20/20 Luminometer). Data were normalized to the protein concentration in each lysate as measured by the Bradford method (BioRad) and normalized to the control. Experiments were repeated at least three times.

Streptococcus sobrinus = test: Diffusion discs test, Streptococcus sobrinus; format: cell-based; conditions: discs with 40 mM of compound in 20 μl solvent
Protocol: as §1

Acinetobacter baumannii = test: Diffusion discs test, Acinetobacter baumannii; format: cell-based; set-up: key: —: no activity; conditions: discs with 40 mM of compound in 20 μl solvent
Protocol: as §1

L428 cells [5] = conditions: cited from earlier work
[6] = system: Chromobacterium violaceum (CV026); test: Quorum sensing inhibition test with bio-reporter CV026 (TLC overlay); format: cell-based; on Degree of QSI of CV026: key: −: no inhibition; +: low inhibition; ++: medium inhibition; +++: strong inhibition
Summary of the method: as §4

[7] = Table 1, coumaperine derivatives, 40 mM in ~20 μL acetonitrile dried on TLC plate, overnight, color intensity

SMILES: O=C(/C=C/C=C/c1ccccc1)N1CCCCC1 [CP-9, (2E,4E)-5-phenyl-1-(piperidin-1-yl)penta-2,4-dien-1-one]
- QSI ([1]; Table 6 summary): +
- QSI activity overall, in words ([1]; running text): anti QS activity
- Bacillus subtilis, diameter of growth inhibition (Bacillus subtilis): 8 mm
- Antibacterial ([2]; Table 6 summary): +
- Antibacterial activity, in words ([2]; running text): showed antibacterial activity; also recorded: inhibit bacterial growth of the three gram-positive bacteria; also recorded: some antibiotic activity
- CC50 at 48 h (in vitro): 24.7 µM
- Cytotoxic (L428 cells [3]): +
- CC50 (L428 cells [3]; human, 48 h): 24.7 µM
- Streptococcus mutans, diameter of growth inhibition (Streptococcus mutans): —
- Staphylococcus aureus, diameter of growth inhibition (Staphylococcus aureus): 9 mm
- Degree of QSI of KYC55 [4, 7]: +
- QSI activity against KYC55, in words ([4]; running text): low
- PA01, diameter of growth inhibition (PA01): —
- Anti-inflammatory (NF-kB): +
- Streptococcus sobrinus, diameter of growth inhibition (Streptococcus sobrinus): 9 mm
- Acinetobacter baumannii, diameter of growth inhibition (Acinetobacter baumannii): —
- Cytotoxicity, previously reported (L428 cells [5]): cytotoxic
- Degree of QSI of CV026 [6, 7]: ++
- QSI activity against CV026, in words ([6]; running text): moderate
